Where two headings read alike, the source gives them in different places.

This data set in a line: Pharmacokinetics analysis in human clinical trial FLE-001, inhalation versus intravenous flecainide, venous plasma. The class given is in vivo. The note with it: healthy adult volunteers, read-out: Peak plasma concentration of flecainide (Cmax). How it is done:
This example describes pharmacokinetics (PK) analysis performed during a human clinical trial (FLE-001) in which inhalation administration of flecainide was tested for safety and compared against intravenous administration of flecainide.
This was an open label non-randomized crossover in a cohort of 6 evaluable healthy adult volunteers. This part of the study consisted of two periods with each subject receiving a total of 2 doses of flecainide, one dose in each period. In Period 1, 3 subjects received flecainide acetate solution by inhalation at the dose level of 30 mg estimated lung total dose (eTLD). and 3 subjects received a single dose of 2 mg/kg (or 150 mg, whichever is less) via a 10 min intravenous (IV) infusion of flecainide (Tambocor™ Injection; approved and used in clinical practice in Australia). In Period 2, the subjects who received flecainide inhalation solution in Period 1 now received a single dose of IV flecainide (2 mg/kg or 150 mg, whichever is less, via a 10 min infusion), while the subjects who received IV flecainide in Period 1 now received flecainide inhalation solution (30 mg eTLD). […] The interpretation is that there was no carry over effect of treatment or other changes in the subjects' vital signs and ECG intervals between the two periods. […]

Consider `O=C(NCC1CCCCN1)c1cc(OCC(F)(F)F)ccc1OCC(F)(F)F` (centres unmarked) [flecainide], for which the Cmax is, setting by setting: (intravenous 2 mg/kg (or 150 mg, whichever is less), 10 min infusion, mean±SD) 749 ± 308 ng/mL; (inhaled, inhalation of flecainide acetate solution, 30 mg eTLD) 120 ng/mL.

For the origin of these results see US20210228825A1, “METHODS FOR DIAGNOSING BRUGADA SYNDROME USING AN AEROSOL” (InCarda Therapeutics, Inc., priority 2018, published 2021).
